Consider 22 compounds from US10104891B2 (priority 2014, dated 2018).

Each structure is given as a SMILES string.

Holding throughout (assay type): in vivo
The subject of one assay is Phytophthora infestans. The assay is described as follows: whole plant or invertebrate. As to conditions: for pest or weed control at 4 µg/mL: Phytophthora infestans, in Solanum lycopersicum, 96 h, read-out: control value (Test 1); for control value (Test 1): tomato late blight, control value vs untreated section.
The next assay deals with Plasmopara viticola. The assay is described as follows: Test 3: control effect against grape downy mildew. The settings on record: control value vs untreated section; for pest or weed control at 4 µg/mL: Plasmopara viticola, 120 h. In short, it runs like this:
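Leaf lesion area, scored 5 days after inoculation and compared with untreated plants, gives the control value. Inoculation used P. viticola zoospores (1.0×10^4 units/ml) with a 16 hr moist incubation at 22° C. It followed by one day a spray of 4 ppm compound (wettable powder in Tween20) onto Neomuscat seedlings.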

Assay [1] has as its system Pseudoperonospora cubensis. Nature of the assay: Test 2: control effect against cucumber downy mildew. The settings on record: control value vs untreated section; for pest or weed control at 4 µg/mL: Pseudoperonospora cubensis, 120 h. Put shortly: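 Protective test: zoospores (1.0×10^4 units/ml) misted one day after applying a 4 ppm suspension (wettable powder diluted in 1/5000 Tween20) to 2-leaf cucumber, Sagami hanjiro. After 16 hr at 22° C humid incubation, leaf lesion area read at day 5, expressed as control value versus untreated leaves.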

The test system of another assay is Pythium graminicola. Nature of the assay: Test 4: control effect against rice damping-off by the Pythium fungus (soil lavage). As to conditions: 1,000 ppm, 2.5 ml test suspension drenched on contaminated soil, rice (koshihikari). The procedure: A 10% wettable powder created according to the Pharmaceutical Formulation Example 1 was diluted with a Tween20 solution prepared to a concentration of 1/5000, then the compound of formula [1] was prepared to a concentration of 4 ppm. Further, the compound of formula [1] in Test 4 was adjusted to a concentration of 1,000 ppm.
<Test 4 Test of Control Effect Against Rice Damping-Off by the Pythium Fungus (Soil Lavage)>
Distilled water was added to the flora of Pythium graminicola cultured in bentoglass seed culture and stirred with a mixer, and adjusted the contaminated soil to 5 g of bacteria against 1 kg of soil.
In a cell tray having 31×31 mm^2 per cell, 20 ml of the contaminated soil was filled in each cell, and 3 seeds of rice chaff that has been forced to sprout (Species: koshihikari) were seeded, and 5 ml of soil was added for covering, then 2.5 ml of test suspension was drenched, and the seeds were incubated in a moist chamber adjusted to 28° C. for 72 hr to induce sprouting. Then, in a low temperature room of 5° C., the onset of disease was induced for 2 days, then the disease was nurtured for 14 days in a room of 25° C.
The soil was washed, and the apoptosis strain, growth restrained strain, and a healthy strain were measured and the onset rate was calculated by the following formula. Onset rate=[Σ(onset strain number by level×onset index)/(investigated strain×3)]×100 [Onset Index]
1: Growth restrained strain
Also, the following formula was used to compute the control value from the obtained onset index. control value={1−onset area rate at the section applied the test agent/onset area rate of untreated section}×100 Computational formula of the control value: […]

Regarding `Cc1cc(C(F)(F)F)nn1CC(=O)N1CCC(c2nc(C3OCc4c(F)ccc(F)c4CO3)cs2)CC1` [Compound 1-3, 4-[4-(6,9-difluoro-1,5-dihydro-3H-2,4-benzodioxepin-3-yl)-2-thiazolyl]-1-[2-[5-methyl-3-(trifluoromethyl)-1H-pyrazole-1-yl]acetyl]piperidine], the pest or weed control at 4 µg/mL (with Phytophthora infestans; with Plasmopara viticola; in assay [1]) was 100% in each case. Moreover, in the assay with Pythium graminicola, the pest or weed control at 1000 ppm is at least 90%.

`Cc1cc(C(F)(F)F)nn1CC(=O)N1CCC(c2nc(C3OCc4cccc(OS(C)(=O)=O)c4CO3)cs2)CC1` (stereo not drawn) [Compound 1-6, 4-[4-(6-methylsulfonyloxy-1,5-dihydro-3H-2,4-benzodioxepin-3-yl)-2-thiazolyl]-1-[2-[5-methyl-3-(trifluoromethyl)-1H-pyrazole-1-yl]acetyl]piperidine]: the pest or weed control at 4 µg/mL (in the assay on Phytophthora infestans; in the assay on Plasmopara viticola; in assay [1]) was 100% in each case. This compound had a pest or weed control at 1000 ppm in the assay on Pythium graminicola of at least 90%.

Regarding `Cc1cc(C(F)(F)F)nn1CC(=O)N1CCC(c2nc(C3OCc4ccc(F)cc4CO3)cs2)CC1` (stereo not drawn) [Compound 1-11, 4-[4-(7-fluoro-1,5-dihydro-3H-2,4-benzodioxepin-3-yl)-2-thiazolyl]-1-[2-[5-methyl-3-(trifluoromethyl)-1H-pyrazole-1-yl]acetyl]piperidine], the pest or weed control at 4 µg/mL (in the assay on Phytophthora infestans; in the assay on Plasmopara viticola; in assay [1]) was 100% each time. Further, in the assay on Pythium graminicola, the pest or weed control at 1000 ppm was at least 90%.

Take `Cc1cc(C(F)(F)F)nn1CC(=O)N1CCC(c2nc(C3OCc4cccc(Br)c4CO3)cs2)CC1` (stereo not drawn) [Compound 1-15, 4-[4-(6-bromo-1,5-dihydro-3H-2,4-benzodioxepin-3-yl)-2-thiazolyl]-1-[2-[5-methyl-3-(trifluoromethyl)-1H-pyrazole-1-yl]acetyl]piperidine]: the pest or weed control at 4 µg/mL (in the assay on Phytophthora infestans; with Plasmopara viticola; in assay [1]) was 100% each time. Besides, the pest or weed control at 1000 ppm with Pythium graminicola is at least 90%.

Turning to `CCCCS(=O)(=O)Oc1cccc2c1COC(c1csc(C3CCN(C(=O)Cn4nc(C(F)(F)F)cc4C)CC3)n1)OC2` (stereo not drawn) [Compound 1-21, 4-[4-(6-butylsulfonyloxy-1,5-dihydro-3H-2,4-benzodioxepin-3-yl)-2-thiazolyl]-1-[2-[5-methyl-3-(trifluoromethyl)-1H-pyrazole-1-yl]acetyl]piperidine], the pest or weed control at 4 µg/mL in the assay with Phytophthora infestans came out at 90%; in the assay on Plasmopara viticola it was 100%; in assay [1] it was 100%. This compound came in with a pest or weed control at 1000 ppm in the assay with Pythium graminicola of at least 90%.

For the compound `CCCS(=O)(=O)Oc1cccc2c1COC(c1csc(C3CCN(C(=O)Cn4nc(C(F)(F)F)cc4C)CC3)n1)OC2` (stereo not drawn) [Compound 1-22, 4-[4-(6-propylsulfonyloxy-1,5-dihydro-3H-2,4-benzodioxepin-3-yl)-2-thiazolyl]-1-[2-[5-methyl-3-(trifluoromethyl)-1H-pyrazole-1-yl]acetyl]piperidine], the pest or weed control at 4 µg/mL (with Phytophthora infestans; in the assay on Plasmopara viticola; in assay [1]) was 100% in each case. For the same compound, in the assay with Pythium graminicola, the pest or weed control at 1000 ppm is at least 90%.

For `CS(=O)(=O)Oc1c(F)ccc2c1COC(c1csc(C3CCN(C(=O)Cc4cc(Cl)ccc4Cl)CC3)n1)OC2` (stereo not drawn) [Compound 2-43, 4-[4-(7-fluoro-6-methylsulfonyloxy-1,5-dihydro-3H-2,4-benzodioxepin-3-yl)-2-thiazolyl]-1-[2-(2,5-dichlorophenyl)acetyl]piperidine], the pest or weed control at 4 µg/mL (with Phytophthora infestans; in the assay on Plasmopara viticola; in assay [1]) was 100% throughout.

On to `CS(=O)(=O)Oc1ccc(I)c2c1COC(c1csc(C3CCN(C(=O)Cc4cc(Cl)ccc4Cl)CC3)n1)OC2` (stereo not drawn) [Compound 2-44, 4-[4-(6-iodo-9-methylsulfonyloxy-1,5-dihydro-3H-2,4-benzodioxepin-3-yl)-2-thiazolyl]-1-[2-(2,5-dichlorophenyl)acetyl]piperidine], for which the pest or weed control at 4 µg/mL in the assay with Phytophthora infestans is 90%; in the assay on Plasmopara viticola it was 100%; in assay [1], 100%.

Turning to `COc1ccc(C)c2c1COC(c1csc(C3CCN(C(=O)Cc4cc(Cl)ccc4Cl)CC3)n1)OC2` (stereo not drawn) [Compound 2-46], the “control value (Test 1)” value in the assay on Phytophthora infestans came out at 100. Further, the “control value (Test 3)” value with Plasmopara viticola turned out to be 100. Also, the “control value (Test 2)” value in assay [1] came out at 100.

For the compound `Cc1ccc(C)c(CC(=O)N2CCC(c3nc(C4OCc5cccc(OC(F)F)c5CO4)cs3)CC2)c1` (stereo not drawn) [Compound 2-47], the “control value (Test 1)” value with Phytophthora infestans amounted to 100. For the same compound, the “control value (Test 3)” value with Plasmopara viticola is listed as 100. Further, the “control value (Test 2)” value in assay [1] turned out to be 100.

As to `CS(=O)(=O)Oc1ccc2c(c1)COC(c1csc(C3CCN(C(=O)Cc4cc(Cl)ccc4Cl)CC3)n1)OC2` (stereo not drawn) [Compound 2-49], in the assay on Phytophthora infestans, the “control value (Test 1)” value is on record as 100. In addition, in the assay with Plasmopara viticola, the “control value (Test 3)” value turned out to be 100. The “control value (Test 2)” value in assay [1] was 0.

As to `COc1cccc2c1COC(c1csc(C3CCN(C(=O)Cc4cc(C)ccc4C)CC3)n1)OC2` (stereo not drawn) [Compound 2-50], the “control value (Test 1)” value in the assay with Phytophthora infestans amounted to 100. In addition, the “control value (Test 3)” value with Plasmopara viticola is 100. For the same compound, the “control value (Test 2)” value in assay [1] is given as 100.

In the case of `COc1cccc2c1COC(c1csc(C3CCN(C(=O)Cc4cc(Cl)ccc4Cl)CC3)n1)OC2` (stereo not drawn) [Compound 2-51], the “control value (Test 1)” value in the assay on Phytophthora infestans was 100. Also, the “control value (Test 3)” value in the assay on Plasmopara viticola came out at 100. Further, the “control value (Test 2)” value in assay [1] came out at 100.

For `Cc1ccc(C)c(CC(=O)N2CCC(c3nc(C4OCc5c(OS(C)(=O)=O)ccc(OS(C)(=O)=O)c5CO4)cs3)CC2)c1` [Compound 2-53], the “control value (Test 1)” value in the assay on Phytophthora infestans came to 100. The “control value (Test 3)” value in the assay on Plasmopara viticola turned out to be 100. The “control value (Test 2)” value in assay [1] came out at 100.

Regarding `Cc1ccc(C)c(CC(=O)N2CCN(c3nc(C4OCc5cccc(OS(C)(=O)=O)c5CO4)cs3)CC2)c1` (stereo not drawn) [Compound 2-54], the “control value (Test 1)” value in the assay on Phytophthora infestans came to 90. Moreover, the “control value (Test 3)” value in the assay with Plasmopara viticola amounted to 100. In assay [1], the “control value (Test 2)” value was 90.

In the case of `CC(C)=NOCC(=O)N1CCC(c2nc(C3OCc4cccc(OS(C)(=O)=O)c4CO3)cs2)CC1` (stereo not drawn) [Compound 3-1, 4-[4-(6-methylsulfonyloxy-1,5-dihydro-3H-2,4-benzodioxepin-3-yl)-2-thiazolyl]-1-[2-[(propane-2-ylideneamino)oxy]acetyl]piperidine], the pest or weed control at 4 µg/mL (in the assay with Phytophthora infestans; in the assay on Plasmopara viticola; in assay [1]) was 100% each time.

As for `O=C(CON=CC(F)(F)F)N1CCC(c2nc(C3OCc4cccc(F)c4CO3)cs2)CC1` (stereo not drawn) [Compound 3-2], the “control value (Test 1)” value in the assay on Phytophthora infestans turned out to be 100. The “control value (Test 3)” value with Plasmopara viticola was 100. Moreover, in assay [1], the “control value (Test 2)” value was 100.

For `CS(=O)(=O)Oc1ccc(F)c2c1COC(c1csc(C3CCN(C(=O)CON=CC(F)(F)F)CC3)n1)OC2` (stereo not drawn) [Compound 3-3], in the assay on Phytophthora infestans, the “control value (Test 1)” value turned out to be 100. Further, in the assay on Plasmopara viticola, the “control value (Test 3)” value stood at 100. The “control value (Test 2)” value in assay [1] is given as 100.

For `O=C(CON=CC(F)(F)F)N1CCC(c2nc(C3OCc4c(F)ccc(F)c4CO3)cs2)CC1` [Compound 3-4], in the assay on Phytophthora infestans, the “control value (Test 1)” value is 100. The “control value (Test 3)” value with Plasmopara viticola stood at 100. Besides, the “control value (Test 2)” value in assay [1] was found to be 100.

On to `COc1ccc(OS(C)(=O)=O)c2c1COC(c1csc(C3CCN(C(=O)CON=CC(F)(F)F)CC3)n1)OC2` (stereo not drawn) [Compound 3-5], for which the “control value (Test 1)” value with Phytophthora infestans is 100. The “control value (Test 3)” value with Plasmopara viticola is 100. In assay [1], the “control value (Test 2)” value is on record as 100.

For `CS(=O)(=O)Oc1cccc2c1COC(c1csc(C3CCN(C(=O)CON=CC(F)(F)F)CC3)n1)OC2` (stereo not drawn) [Compound 3-6], the “control value (Test 1)” value in the assay on Phytophthora infestans was determined as 100. In addition, the “control value (Test 3)” value in the assay with Plasmopara viticola is 100. Also, the “control value (Test 2)” value in assay [1] is on record as 100.

With `CO/C(=N\c1cc(C)ccc1C)N1CCC(c2nc(C3OCc4cccc(OS(C)(=O)=O)c4CO3)cs2)CC1` (stereo not drawn) [Compound 4-1, 4-[4-(6-methylsulfonyloxy-1,5-dihydro-3H-2,4-benzodioxepin-3-yl)-2-thiazolyl]-1-[(Z)-[(2,5-dimethylphenyl)imino](methoxy)methyl]piperidine], the pest or weed control at 4 µg/mL (in the assay on Phytophthora infestans; with Plasmopara viticola; in assay [1]) was 100% throughout.
